Consider nine compounds from patent US20260070945A1, “MACROCYCLIC IMMUNOMODULATORS” (Bristol-Myers Squibb Company, priority 2022, published 2026).

The structures appear in SMILES notation. *1 amine or outer side, *2 acyl side, *3 side chain or, on linkers, in order; H or OH if unused. Where a SMILES comes first, the peptide text is derived from it. Bridges are numbered along the chain shown (N, C = ends). [ ]: non-standard residue; d: D form. The star is where a group is joined. ξ: configuration not given here. Phe(3-CF3) = N[C@@H](Cc1cccc(C(F)(F)F)c1)C(=O)O; Phe(4-COOH) = N[C@@H](Cc1ccc(C(=O)O)cc1)C(=O)O; Bip = N[C@@H](Cc1ccc(-c2ccccc2)cc1)C(=O)O; NH(CH2)14COOH = O=C(O)CCCCCCCCCCCCCCN*; Phe(3-Me) = Cc1cccc(C[C@H](N)C(=O)O)c1; γGlu = O=C(O)[C@H](CCC(=O)[*:2])N[*:1]; NH(CH2)12COOH = O=C(O)CCCCCCCCCCCCN*; Val(3-OH) = CC(C)(O)[C@H](N)C(=O)O; NMeR = CN[C@@H](CCCNC(=N)N)C(=O)O; 4Pal = N[C@@H](Cc1ccncc1)C(=O)O; Cha = N[C@@H](CC1CCCCC1)C(=O)O; Ile(3ξ) = CCC(C)[C@H](N)C(=O)O; Thr(3ξ) = CC(O)[C@H](N)C(=O)O; 12Ado = NCCCCCCCCCCCC(=O)O; Carboxymethyl = O=C(O)C*; NMeA = CN[C@@H](C)C(=O)O; Aun = NCCCCCCCCCCC(=O)O; Dab = NCC[C@H](N)C(=O)O; Dap = NC[C@H](N)C(=O)O; AEEA = NCCOCCOCC(=O)O

The target in one assay is T1, PD-1/PD-L1 interaction (PE-labeled human PD-L1-Ig binding to Jurkat cell line over-expressing human PD-1) (Homo sapiens, UniProt Q15116).
T1 construct: expressed in transfected cells; host or cells: Jurkat
T1 sequence (Q15116 25-288): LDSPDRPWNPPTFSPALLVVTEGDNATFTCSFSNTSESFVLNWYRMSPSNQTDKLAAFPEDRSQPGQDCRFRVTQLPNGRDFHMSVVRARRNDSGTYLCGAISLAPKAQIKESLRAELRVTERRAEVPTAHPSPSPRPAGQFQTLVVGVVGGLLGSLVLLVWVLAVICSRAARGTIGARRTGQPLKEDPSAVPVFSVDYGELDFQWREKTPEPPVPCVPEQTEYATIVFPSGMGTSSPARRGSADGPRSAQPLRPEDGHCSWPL
As to the kind of experiment: Jurkat-PD-1 Cell Binding High-Content Screening Assay (CBA). To be noted: Jurkat-hPD-1 cells, PE-labeled PD-L1-Ig 20 nM final; read-out: Jurkat HPD1 PDL1 IC50. An outline of the steps:
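Cells 8×10^3/well, DMEM + 10% FCS; cpd 2 h, 37 °C; PE–PD-L1-Ig 20 nM final, 1 h; PFA fix + Hoechst 33342, 3× dPBS wash; high-content imager.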
Regarding `CCC(C)[C@@H]1NC(=O)[C@H](Cc2ccc(-c3ccccc3)cc2)NC(=O)[C@H](CC(C)C)NC(=O)[C@H](Cc2c[nH]c3ccccc23)NC(=O)[C@H](CC(=O)O)NC(=O)[C@H](Cc2ccc(OCC(=O)O)cc2)NC(=O)[C@H](Cc2ccncc2)NC(=O)CSC[C@@H](C(=O)N[C@H](CC(N)=O)C(=O)NCCOCCOCC(=O)NCCCCCCCCCCC(=O)O)NC(=O)[C@H](CO)NC(=O)[C@H](C(C)C)NC(=O)[C@H](CC(C)C)NC(=O)[C@H](CCN)NC(=O)[C@@H](CC(C)C)NC(=O)[C@H](C)N(C)C1=O` (stereo partly drawn) [Example 2064] ({CH2CO}-[4Pal]Y(Carboxymethyl)DWL[Bip][Ile(3ξ)][NMeA][dL][Dab]LVSC[dN][AEEA][Aun]-OH; thioether N-14), the IC50 (in general, the point on the concentration scale where inhibition reaches its midpoint) came out at 0.0211 µM.

Consider `CC(C)C[C@@H]1NC(=O)[C@H](Cc2c[nH]c3ccccc23)NC(=O)[C@H](CC(=O)O)NC(=O)[C@H](Cc2ccncc2)NC(=O)[C@H](Cc2ccc(OCC(=O)O)cc2)NC(=O)CSC[C@@H](C(=O)N[C@@H](CN)C(=O)NCCCCCCCCCCC(=O)O)NC(=O)[C@H](CO)NC(=O)[C@H](C(C)C)NC(=O)[C@H](CC2CCCCC2)NC(=O)[C@H](CCN)NC(=O)[C@@H](CC(C)C)NC(=O)[C@H](C)N(C)C(=O)[C@H](C(C)C)NC(=O)[C@H](Cc2ccc(-c3ccccc3)cc2)NC1=O` [Example 1082] ({CH2CO}-Y(Carboxymethyl)[4Pal]DWL[Bip]V[NMeA][dL][Dab][Cha]VSC[Dap][Aun]-OH; thioether N-14), for which the IC50 came to 0.0282 µM.

Regarding `CCC(C)[C@@H]1NC(=O)[C@H](Cc2ccc(-c3ccccc3)cc2)NC(=O)[C@H](CC(C)C)NC(=O)[C@H](Cc2c[nH]c3ccccc23)NC(=O)[C@H](CC(=O)O)NC(=O)[C@H](Cc2ccc(C(=O)O)cc2)NC(=O)[C@H](Cc2ccc(OCC(=O)O)cc2)NC(=O)CSC[C@@H](C(=O)N[C@@H](CC(N)=O)C(=O)NCCOCCOCC(=O)N[C@@H](CCN)C(=O)NCCCCCCCCCCC(=O)O)NC(=O)[C@H](CO)NC(=O)[C@H](C(C)C)NC(=O)[C@H](CC2CCCCC2)NC(=O)[C@H](CCN)NC(=O)[C@@H](CC(C)C)NC(=O)[C@H](C)N(C)C1=O` (stereo partly drawn) [Example 2079] ({CH2CO}-Y(Carboxymethyl)[Phe(4-COOH)]DWL[Bip][Ile(3ξ)][NMeA][dL][Dab][Cha]VSCN[AEEA][Dab][Aun]-OH; thioether N-14), the IC50 came to 0.0113 µM.

As to `Cc1cccc(C[C@@H]2NC(=O)[C@H](CC(=O)O)NC(=O)[C@H](Cc3ccc(OCC(=O)O)cc3)NC(=O)[C@H](C(C)O)NC(=O)CSC[C@@H](C(=O)N(C)[C@@H](CCCNC(=N)N)C(=O)NCCCCCCCCCCC(=O)O)NC(=O)[C@H](CO)NC(=O)[C@H](C(C)C)NC(=O)[C@H](CC3CCCCC3)NC(=O)[C@H](CCN)NC(=O)[C@@H](CC(C)C)NC(=O)[C@H](C)N(C)C(=O)[C@H](C(C)C)NC(=O)[C@H](Cc3ccc(-c4ccccc4)cc3)NC(=O)[C@H](C(C)C)NC2=O)c1` (stereo partly drawn) [Example 2301] ({CH2CO}-[Thr(3ξ)]Y(Carboxymethyl)D[Phe(3-Me)]V[Bip]V[NMeA][dL][Dab][Cha]VSC[NMeR][Aun]-OH; thioether N-14), the IC50 amounted to 0.151 µM.

Regarding `CC(C)C[C@@H]1NC(=O)[C@H](Cc2c[nH]c3ccccc23)NC(=O)[C@H](CC(=O)O)NC(=O)[C@H](Cc2ccncc2)NC(=O)[C@H](Cc2ccc(OCC(=O)O)cc2)NC(=O)CSC[C@@H](C(=O)N[C@@H](CCCCN)C(=O)NCCOCCOCC(=O)NCCCCCCCCCCC(=O)O)NC(=O)[C@H](CO)NC(=O)[C@H](C(C)C)NC(=O)[C@H](CC2CCCCC2)NC(=O)[C@H](CCN)NC(=O)[C@@H](CC(C)C)NC(=O)[C@H](C)N(C)C(=O)[C@H](C(C)C)NC(=O)[C@H](Cc2ccc(-c3ccccc3)cc2)NC1=O` [Example 1091] ({CH2CO}-Y(Carboxymethyl)[4Pal]DWL[Bip]V[NMeA][dL][Dab][Cha]VSCK[AEEA][Aun]-OH; thioether N-14), the IC50 was 0.0068 µM.

Staying with this assay, now noted: PE-labeled PD-L1-Ig 20 nM final, Jurkat-hPD-1 cells; read-out: Jurkat HPD1 PDL1 IC50.
As to `CC(=O)NCCCC[C@@H]1NC(=O)[C@H](C(C)(C)O)NC(=O)[C@H](CC2CCCCC2)NC(=O)[C@H](CCN)NC(=O)[C@@H](CC(C)C)NC(=O)[C@H](C)N(C)C(=O)[C@H](CCC(N)=O)NC(=O)[C@H](Cc2ccc(-c3ccccc3)cc2)NC(=O)[C@H](Cc2ccc(C(=O)O)cc2)NC(=O)[C@H](Cc2cccc(C(F)(F)F)c2)NC(=O)[C@H](CC(=O)O)NC(=O)[C@H](Cc2ccc(OCC(=O)O)cc2)NC(=O)[C@H](Cc2ccc(OCC(=O)O)cc2)NC(=O)CSC[C@@H](C(=O)N[C@@H](CCN)C(=O)NCCOCCOCC(=O)N[C@@H](CCC(=O)NCCOCCOCC(=O)NCCCCCCCCCCCCCCC(=O)O)C(=O)O)NC1=O` [Example 2652] ({CH2CO}-Y(Carboxymethyl)Y(Carboxymethyl)D[Phe(3-CF3)][Phe(4-COOH)][Bip]Q[NMeA][dL][Dab][Cha][Val(3-OH)]K(Ac)C[Dab][AEEA][γGlu][AEEA]-{NH(CH2)14COOH}; thioether N-14), the IC50 was 0.047 µM.

Turning to `Cc1cccc(C[C@@H]2NC(=O)[C@H](CC(=O)O)NC(=O)[C@H](Cc3ccc(OCC(=O)O)cc3)NC(=O)[C@H]([C@@H](C)O)NC(=O)CSC[C@@H](C(=O)N[C@@H](CCN)C(=O)NCCOCCOCC(=O)NCCCCCCCCCCCC(=O)O)NC(=O)[C@@H](CCC(=O)O)NC(=O)[C@H](C(C)C)NC(=O)[C@H](CC3CCCCC3)NC(=O)[C@H](CCN)NC(=O)[C@@H](CC(C)C)NC(=O)[C@H](C)N(C)C(=O)[C@H](Cc3ccc(OCC(=O)O)cc3)NC(=O)[C@H](Cc3ccc(-c4ccccc4)cc3)NC(=O)[C@H](Cc3ccc(OCC(=O)O)cc3)NC2=O)c1` [Example 2668] ({CH2CO}-TY(Carboxymethyl)D[Phe(3-Me)]Y(Carboxymethyl)[Bip]Y(Carboxymethyl)[NMeA][dL][Dab][Cha]V[dE]C[Dab][AEEA][12Ado]-OH; thioether N-14), the IC50 came out at 0.0026 µM.

As for `CC(=O)NCCCC[C@@H]1NC(=O)[C@H](C(C)(C)O)NC(=O)[C@H](CC2CCCCC2)NC(=O)[C@H](CCN)NC(=O)[C@@H](CC(C)C)NC(=O)[C@H](C)N(C)C(=O)[C@H](CCC(N)=O)NC(=O)[C@H](Cc2ccc(-c3ccccc3)cc2)NC(=O)[C@H](Cc2ccc(C(=O)O)cc2)NC(=O)[C@H](Cc2cccc(C(F)(F)F)c2)NC(=O)[C@H](CC(=O)O)NC(=O)[C@H](Cc2ccc(OCC(=O)O)cc2)NC(=O)[C@H](Cc2ccc(OCC(=O)O)cc2)NC(=O)CSC[C@@H](C(=O)N[C@@H](CCN)C(=O)NCCCCCCCCCCCCC(=O)O)NC1=O` [Example 2565] ({CH2CO}-Y(Carboxymethyl)Y(Carboxymethyl)D[Phe(3-CF3)][Phe(4-COOH)][Bip]Q[NMeA][dL][Dab][Cha][Val(3-OH)]K(Ac)C[Dab]-{NH(CH2)12COOH}; thioether N-14), the IC50 was 0.0033 µM.

On to `CC(C)C[C@H]1NC(=O)[C@H](C)N(C)C(=O)[C@H](Cc2ccc(C(=O)O)cc2)NC(=O)[C@H](Cc2ccc(-c3ccccc3)cc2)NC(=O)[C@H](Cc2ccc(C(=O)O)cc2)NC(=O)[C@H](Cc2cccc(C(F)(F)F)c2)NC(=O)[C@H](CC(=O)O)NC(=O)[C@H](Cc2ccc(C(=O)O)cc2)NC(=O)[C@H](Cc2ccc(OCC(=O)O)cc2)NC(=O)CSC[C@@H](C(=O)N[C@@H](CCN)C(=O)NCCCCCCCCCCC(=O)O)NC(=O)[C@H](CO)NC(=O)[C@H](C(C)(C)O)NC(=O)[C@H](CC2CCCCC2)NC(=O)[C@H](CCN)NC1=O` [Example 2585] ({CH2CO}-Y(Carboxymethyl)[Phe(4-COOH)]D[Phe(3-CF3)][Phe(4-COOH)][Bip][Phe(4-COOH)][NMeA][dL][Dab][Cha][Val(3-OH)]SC[Dab][Aun]-OH; thioether N-14), for which the IC50 stood at 0.0025 µM.
